In patent US20020169264A1, “Polymers incorporating peptides” (The Council of the Queensland Institute of Medical Research, priority 1997, published 2002):
Read-outs that look alike come from different tables or passages of the source. Where no end group is shown, it is not given here. The star is where a group is joined. Acryloyl = C=CC(=O)*; Ahx = NCCCCCC(=O)O

Legend:
[1] = test system: lymph node T cells; test: T cell proliferation assay, peptide monomer-primed lymph node T cells; format: cell-based, mice; details: FIG. 10
Description: Lymph node T cells were derived from pooled inguinal and popliteal lymph node cell suspensions of mice primed seven days previously with peptide. T cells were enriched by passage through nylon wool columns^24.
(§1) Female Balb/c mice, 6 to 8 weeks of age, were used. For antibody studies, animals were inoculated i.p. with synthetic peptide in monomeric or polymeric form and emulsified in complete Freund's adjuvant (CFA). Mice received 5 or 0.5 nmoles of monomeric peptide or the equivalent number of moles of determinant within a polymer. For T-cell studies, mice were inoculated s.c. in the hind footpads with a total of 10 nmoles of T-cell determinant in CFA.
T cells were cultured (at a concentration of 3×10^5 cells/well for lymph node T cells and 1×10^4/well for the T-cell clone) in 96-well nmicrotitre trays (Nunc, Denmark) in the presence of syngenic γ-irradiated (2,200 R, ^60Co source) spleen cells as a source of antigen presenting cells, together with antigen in a total volume of 250μl^22, 23, The culture medium was RPMI 1640 supplemented with 10% heat inactivated (56° C., 30min) fetal calf serum, 2mM glutamine, 2mM sodium pyruvate, 0.1mM 2-mercaptoethanol, 30μg/ml gentamicin, 100 I.U./ml penicillin and 100μg/ml streptomycin. […] Cells were then harvested onto glass fibre filters and incorporation of ^3H-thymidine was measured on a Hewlett Packard Matrix 9600 direct β-counter.

[2] = test system: Balb/c mice; test: Immunogenicity in Balb/c mice, antibody titre by ELISA; format: in vivo; details: for antibody response (levels of antibody elicited): 0.5 nmole dose, FIG. 11B
Description: as §1
Enzyme-linked immunosorbent assays (ELISAs) were performed as described^23 using microtitre plates coated with a solution of 5μg/ml peptide or polymer antigen. Bound antibody was detected by incubation with horseradish peroxidase-conjugated rabbit immunoglobulin (Ig) directed against mouse Ig (DAKO, Denmark) for 1.5h followed, after washing, with substrate (0.2mM 2,2′-azino-bis 3-ethylbenzthiazoline-sulphonic acid in 50mM citric acid pH4.0 containing 0.004% v/v hydrogen peroxide). The absorbance at a wavelength of 405nm was determined using a Labsystems Multiscan Multisoft microplate reader (Pathtech Diagnostics Pty. Ltd., Aust.) and antibody titres were expressed as the reciprocal of the antibody dilution giving an absorbance of 0.25, which corresponds to at least five times the background value.

[3] = test system: MAb 2/1; test: ELISA, MAb 2/1 binding to coated peptide or polymer; design: species or system mouse
[4] = test system: MAb 1/1; test: ELISA, MAb 1/1 binding to coated peptide or polymer; design: species or system mouse; details: persulphate to peptide ratios 0.1:1 to 1,000:1, in the presence of acrylamide; FIG. 8
[5] = test system: virus infected P815 mastocytoma cells; format: in vivo, BALB/c mice

ALNNRFQIKGVELKS [P3]
recognition by polyclonal lymph node T cells raised against monomeric T-cell determinant peptide [1]: equal efficiency

GMRNVPERKQT [P2]
antibody response (levels of antibody elicited) [2]: no antibody

PKYVKQNTLKLATGMRNVPEKQT [P5]
primary antibody response ([2]; 5 nmoles of peptide epitope, i.p. in CFA): very weak | rise of antibody response following the second inoculation ([2]; 5 nmoles of peptide epitope, secondary vs primary): ~10 fold | antigenic activity (MAb 2/1 binding) after exposure to ammonium persulphate ([3]; persulphate to peptide ratios 0.1:1 to 1,000:1, in the presence of acrylamide, FIG. 8): little or no effect on antigenic activity | antigenic activity (MAb 1/1 binding) after exposure to ammonium persulphate [4]: little or no effect on antigenic activity

TLKLATG [P1]
antibody response (levels of antibody elicited) [2]: no antibody | binding of MAb 2/1 to coated polymers ([3]; FIG. 9): slightly reduced ability to interact with MAb

TYQRTRALV [P7]
CTL response (priming) ([5]; mouse, in vivo, sc): did

acryloyl-Ahx-CTL: acryloyl-Ahx derivative of the CTL epitope TYQRTRALV, not polymerised ({Acryloyl-Ahx}-TYQRTRALV)
CTL response (priming) ([5]; 10 μg peptide s.c. in CFA, virus infected targets, FIG. 15): did not induce a CTL response
